Tested on: Corticotropin Releasing Factor, CRF
Type: binding

Question: How did the “Pass 1 (10^−5 M) % Inhibition” value turn out when COC(=O)[C@H]1[C@@H](OC(=O)c2ccccc2)C[C@@H]2CC[C@H]1N2C [cocaine] was run?
Answer: 22.49%

From patent US20020187514A1 (priority 1999, published 2002)
